Legend:
[1] = system: DR-GFP U2OS cells; assay: HR assay (GFP fluorescence by flow cytometry after I-SceI transfection); assay type: cell-based; conditions: Homo sapiens, 25 μM inhibitor, 72 hours after transfection
Procedure: DR-GFP U2OS cells (Methods in Molecular Biology 2012, 920, 379.) were transfected with 2.5 μg of I-SceI-expressing pCAGGS vector and treated with the inhibitors at 25 μM concentration. 72 hours after the transfection, the cells were trypsinized and resuspended in 3% BSA in PBS. GFP fluorescence detection was carried out using a BD FACSVerse flow cytometer and data analyzed with FlowJo software.

[2] = biological target: MRE11 (Homo sapiens (Human), UniProt P49959); assay: HTS nuclease assay (fluorescence-quenched 5′ overhang DNA substrate cleavage); assay type: biochemical; conditions: 18 nM MRE11, 40 nM DNA substrate, analysis at t=4 h
Procedure: DNA Substrate Preparation
The DNA substrate is prepared by mixing the oligonucleotides listed below in a 1:1 ratio to reach a final concentration of 6 μM in a buffer containing 50 mM Tris pH 7.5, 100 mM NaCl and 8 mM MgCl2.
The mixture is heat for 3 min at 65° C. and let to cool down slowly to RT. Then it is stored at −20° C.
This substrate is a 5′ overhang, which is a preferred substrate of MRE11. […] The fluorescence increases upon substrate cleavage by MRE11, when separation of the two labels occur.
The conditions of the assay are as follows:
Total reaction volume: 5 μL
DNA substrate concentration in the reaction: 40 nM
Inhibitor concentration range tested: 7 nM-50 μM
Each plate contains a series of high and low signal control wells, where no compound is added:
High signal: MRE11+DNA substrate
Low signal: DNA substrate only
These are used during data evaluation.
Two Extra Assay Controls:
1) To check whether unwinding of DNA by the compounds alone occurs.
The DNA substrate [CY5+BBQ(650)] is mixed with the compounds with no protein present.
The CY5 single stranded oligo is mixed with the compounds with no protein present.
The layout of the plates is created by the in-house software (CZ-Openscreen Prague) and this information is transferred to the robotic HTS station.
The reaction is started by the addition of DNA and the reaction time is counted from that moment, including a 15 min delay. Ten timepoints are measured:
The assay data analysis was performed at t=4 h. This corresponds to the time when the reaction is close to its maximum.
The data analysis was performed using the in-house software (CZ-Openscreen Prague) to obtain IC50 for each compound.

Sequence of MRE11 (P49959 whole entry): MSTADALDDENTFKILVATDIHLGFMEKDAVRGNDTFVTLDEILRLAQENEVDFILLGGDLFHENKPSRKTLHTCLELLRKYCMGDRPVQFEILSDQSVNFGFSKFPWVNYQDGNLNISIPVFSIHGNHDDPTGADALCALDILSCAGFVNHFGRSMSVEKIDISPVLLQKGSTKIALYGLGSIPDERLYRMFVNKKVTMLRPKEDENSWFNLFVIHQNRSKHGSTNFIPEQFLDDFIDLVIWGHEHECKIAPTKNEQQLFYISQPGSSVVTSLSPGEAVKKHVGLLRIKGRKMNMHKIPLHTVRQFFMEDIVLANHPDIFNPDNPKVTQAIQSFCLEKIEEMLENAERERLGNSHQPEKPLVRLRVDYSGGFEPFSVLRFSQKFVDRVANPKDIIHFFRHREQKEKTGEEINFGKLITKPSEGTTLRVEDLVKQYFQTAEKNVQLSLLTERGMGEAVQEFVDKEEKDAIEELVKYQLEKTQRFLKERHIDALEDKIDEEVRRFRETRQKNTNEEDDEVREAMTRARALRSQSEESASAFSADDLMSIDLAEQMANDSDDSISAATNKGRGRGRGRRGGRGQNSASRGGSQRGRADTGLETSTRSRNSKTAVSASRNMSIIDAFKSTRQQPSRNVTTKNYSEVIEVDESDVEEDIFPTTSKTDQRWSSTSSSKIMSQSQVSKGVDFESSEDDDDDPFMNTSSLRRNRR

Compound | inhibition at 25 µM [1] | IC50 [2]
CC(c1ccc(O)c(O)c1)C(C#N)C(=O)Nc1nc(-c2ccccc2)cs1 (stereo not drawn) [Preparative Example 177, 2-cyano-3-(3,4-dihydroxyphenyl)-N-(4-phenylthiazol-2-yl)butanamide] | 50 to 75% | 
N#CC(Cc1cc(F)c(O)c(Cl)c1)C(=O)Nc1nc(-c2ccccc2)cs1 (stereo not drawn) [Preparative Example 156, 3-(3-chloro-5-fluoro-4-hydroxyphenyl)-2-cyano-N-(4-phenylthiazol-2-yl)propanamide] | < 50% | 2 to 10 µM
N#CC(Cc1ccc(O)c(O)c1)C(=O)Nc1nc(-c2ccc(C(F)(F)F)cc2)cs1 (stereo not drawn) [Preparative Example 132, 2-cyano-3-(3,4-dihydroxyphenyl)-N-(4-(4-(trifluoromethyl)phenyl)thiazol-2-yl)propanamide] | > 75% | 2 to 10 µM
Cc1ccc(-c2csc(NC(=O)C(C#N)Cc3ccc(O)c(O)c3)n2)cc1 (stereo not drawn) [Preparative Example 133, 2-cyano-3-(3,4-dihydroxyphenyl)-N-(4-(p-tolyl)thiazol-2-yl)propanamide] | < 50% | 2 to 10 µM
N#CC(Cc1ccc(O)c(O)c1)C(=O)Nc1nc(-c2ccccc2C(F)(F)F)cs1 (stereo not drawn) [Preparative Example 159, 2-cyano-3-(3,4-dihydroxyphenyl)-N-(4-(2-(trifluoromethyl)phenyl)thiazol-2-yl)propanamide] | < 50% | 2 to 10 µM
Cc1ccc(-c2csc(NC(=O)C(C#N)Cc3ccc(O)c(O)c3)n2)nc1 (stereo not drawn) [Preparative Example 165, 2-cyano-3-(3,4-dihydroxyphenyl)-N-(4-(5-methylpyridin-2-yl)thiazol-2-yl)propanamide] | > 75% | < 2 µM
CC(C)(C)c1cc(CC(C#N)C(=O)Nc2nc(-c3ccccn3)cs2)cc(C(C)(C)C)c1O (stereo not drawn) [Preparative Example 169, 2-cyano-3-(3,5-di-tert-butyl-4-hydroxyphenyl)-N-(4-(pyridin-2-yl)thiazol-2-yl)propanamide] | > 75% | 10 to 90 µM
Cc1cc(-c2csc(NC(=O)C(C#N)Cc3ccc(O)c(O)c3)n2)cs1 (stereo not drawn) [Preparative Example 152, 2-cyano-3-(3,4-dihydroxyphenyl)-N-(4-(5-methylthiophen-3-yl)thiazol-2-yl)propanamide] | < 50% | 2 to 10 µM
N#CC(Cc1ccc(O)c(O)c1)C(=O)Nc1nc(-c2ccc3c(c2)CCCC3)cs1 (stereo not drawn) [Preparative Example 153, 2-cyano-3-(3,4-dihydroxyphenyl)-N-(4-(5,6,7,8-tetrahydronaphthalen-2-yl)thiazol-2-yl)propanamide] | > 75% | 2 to 10 µM
N#CC(Cc1ccc(O)c(O)c1)C(=O)Nc1nc(-c2cccc(-c3ccccc3)c2)cs1 (stereo not drawn) [Preparative Example 138, N-(4-([1,1′-biphenyl]-3-yl)thiazol-2-yl)-2-cyano-3-(3,4-dihydroxyphenyl)propanamide] | > 75% | 2 to 10 µM
CC(C#N)(Cc1ccc(O)c(O)c1)C(=O)Nc1nc(-c2ccccc2)cs1 (stereo not drawn) [Preparative Example 179, 2-cyano-3-(3,4-dihydroxyphenyl)-2-methyl-N-(4-phenylthiazol-2-yl)propanamide] | < 50% | 10 to 90 µM
CC(C)c1ccc(-c2csc(NC(=O)C(C#N)Cc3ccc(O)c(O)c3)n2)cc1 (stereo not drawn) [Preparative Example 166, 2-cyano-3-(3,4-dihydroxyphenyl)-N-(4-(4-isopropylphenyl)thiazol-2-yl)propanamide] | > 75% | 2 to 10 µM
CC(=O)Nc1ccc(CC(C#N)C(=O)Nc2nc(-c3ccccc3)cs2)cc1 (stereo not drawn) [Preparative Example 128, 3-(4-acetamidophenyl)-2-cyano-N-(4-phenylthiazol-2-yl)propanamide] | 50 to 75% | 
COc1ccnc(-c2csc(NC(=O)C(C#N)Cc3ccc(O)c(O)c3)n2)c1 (stereo not drawn) [Preparative Example 167, 2-cyano-3-(3,4-dihydroxyphenyl)-N-(4-(4-methoxypyridin-2-yl)thiazol-2-yl)propanamide] | > 75% | < 2 µM
N#CC(Cc1ccc(O)c(O)c1)C(=O)Nc1nc(-c2cc(C(F)(F)F)ccn2)cs1 (stereo not drawn) [Preparative Example 174, 2-cyano-3-(3,4-dihydroxyphenyl)-N-(4-(4-(trifluoromethyl)pyridin-2-yl)thiazol-2-yl)propanamide] | > 75% | < 2 µM
N#CC(Cc1ccc(O)c(O)c1)C(=O)Nc1nc(-c2ccsc2)cs1 (stereo not drawn) [Preparative Example 145, 2-cyano-3-(3,4-dihydroxyphenyl)-N-(4-(thiophen-3-yl)thiazol-2-yl)propanamide] | < 50% | 2 to 10 µM
Cc1ccccc1-c1csc(NC(=O)C(C#N)Cc2ccc(O)c(O)c2)n1 (stereo not drawn) [Preparative Example 161, 2-cyano-3-(3,4-dihydroxyphenyl)-N-(4-(o-tolyl)thiazol-2-yl)propanamide] | 50 to 75% | 2 to 10 µM
N#CC(Cc1cc(C(F)(F)F)cc(C(F)(F)F)c1)C(=O)Nc1nc(-c2ccccc2)cs1 (stereo not drawn) [Preparative Example 163, 3-(3,5-bis(trifluoromethyl)phenyl)-2-cyano-N-(4-phenylthiazol-2-yl)propanamide] | > 75% | 
N#CC(Cc1ccc(O)c(O)c1)C(=O)Nc1nc(-c2ccccc2)c(C2CCCCC2)s1 (stereo not drawn) [Preparative Example 146, 2-cyano-N-(5-cyclohexyl-4-phenylthiazol-2-yl)-3-(3,4-dihydroxyphenyl)propanamide] | > 75% | 2 to 10 µM
COc1ccc(-c2csc(NC(=O)C(C#N)Cc3ccc(O)c(O)c3)n2)c(F)c1 (stereo not drawn) [Preparative Example 173, 2-cyano-3-(3,4-dihydroxyphenyl)-N-(4-(2-fluoro-4-methoxyphenyl)thiazol-2-yl)propanamide] | > 75% | < 2 µM
Cc1cc(CC(C#N)C(=O)Nc2nc(-c3ccc(C(C)(C)C)cc3)cs2)cc(C)c1O (stereo not drawn) [Preparative Example 149, N-(4-(4-(tert-butyl)phenyl)thiazol-2-yl)-2-cyano-3-(4-hydroxy-3,5-dimethylphenyl)propanamide] | > 75% | 10 to 90 µM
COc1cccc(-c2csc(NC(=O)C(C#N)Cc3ccc(O)c(O)c3)n2)n1 (stereo not drawn) [Preparative Example 170, 2-cyano-3-(3,4-dihydroxyphenyl)-N-(4-(6-methoxypyridin-2-yl)thiazol-2-yl)propanamide] | 50 to 75% | 2 to 10 µM
N#Cc1cc(CC(C#N)C(=O)Nc2nc(-c3ccccc3)cs2)ccc1O (stereo not drawn) [Preparative Example 151, 2-cyano-3-(3-cyano-4-hydroxyphenyl)-N-(4-phenylthiazol-2-yl)propanamide] | < 50% | 10 to 90 µM
N#CC(Cc1ccc(O)c(O)c1)C(=O)Nc1nc(-c2ccc(Cl)cc2Cl)cs1 (stereo not drawn) [Preparative Example 171, 2-cyano-N-(4-(2,4-dichlorophenyl)thiazol-2-yl)-3-(3,4-dihydroxyphenyl)propanamide] | > 75% | < 2 µM
N#CC(Cc1ccc(O)c(O)c1)C(=O)Nc1nc(-c2ccc(C3CCCCC3)cc2)cs1 (stereo not drawn) [Preparative Example 154, 2-cyano-N-(4-(4-cyclohexylphenyl)thiazol-2-yl)-3-(3,4-dihydroxyphenyl)propanamide] | > 75% | 2 to 10 µM
N#CC(Cc1cc(Cl)c(O)c(Cl)c1)C(=O)Nc1nc(-c2ccccc2)c(-c2ccccc2)s1 (stereo not drawn) [Preparative Example 134, 2-cyano-3-(3,5-dichloro-4-hydroxyphenyl)-N-(4,5-diphenylthiazol-2-yl)propanamide] | < 50% | 2 to 10 µM
N#CC(Cc1ccc2nc[nH]c2c1)C(=O)Nc1nc(-c2ccccc2)cs1 (stereo not drawn) [Preparative Example 142, 3-(1H-benzo[d]imidazol-6-yl)-2-cyano-N-(4-phenylthiazol-2-yl)propanamide] | < 50% | 10 to 90 µM
N#Cc1ccc(-c2csc(NC(=O)C(C#N)Cc3ccc(O)c(O)c3)n2)cc1 (stereo not drawn) [Preparative Example 131, 2-cyano-N-(4-(4-cyanophenyl)thiazol-2-yl)-3-(3,4-dihydroxyphenyl)propanamide] | 50 to 75% | 2 to 10 µM
CC(C)(C)c1ccc(-c2csc(NC(=O)C(C#N)Cc3cc(C(C)(C)C)c(O)c(C(C)(C)C)c3)n2)cc1 (stereo not drawn) [Preparative Example 150, N-(4-(4-(tert-butyl)phenyl)thiazol-2-yl)-2-cyano-3-(3,5-di-tert-butyl-4-hydroxyphenyl)propanamide] | > 75% | 
